The EC50 is the concentration at which the effect is half-maximal.

Series [1] relates to rat hepatocytes (RTCP10). Put plainly: MTS cell viability assay, rat hepatocytes. In kind it is cell-based. The settings on record: 100 µM, 24 h. The procedure:
Cell viability was determined by using the MTS assay. In brief, HepG2 cells (5×10^3 cells/100 µL/well), MDA-MB-231 (5×10^3 cells/100 µL/well), THP-1 (25×10^3/100 µL/well), normal human and rat hepatocytes (1×10^4 cells/100 µL/well) were plated in triplicate, in a 96 well sterile flat bottom tissue culture plates. […] Thereby, cells were exposed to various concentrations (0.1, 1, 10, 25, 50, 75, 100 µM) of each treatment. Controls consist of cells with media containing DMSO (<0.5%), test blank wells contained the test compound in media with no cells and blank wells contained media with no cells. After additional 3, 6, 12, 18 or 24 h, 20 µL of the MTS reagent in combination with the electron coupling agent, phenazine methosulfate were added to the wells and cells were incubated in a humidified incubator for 3 h. Absorbance at 490 nm (OD490) was measured by using a Flurostar Optima microplate reader (BMG Labtech, Cary, NC, USA) to obtain the number of viable cells relative to the control population. Percentage of viability of the test compound treated cells are expressed as percentage compared to control (<0.5% DMSO). […] The selective index (SI) of the fatty acid esters of phloridzin is defined as the ratio of cytotoxicity (EC50 values) on normal HP-F cells to solid cancer HepG2, MDA-MB-231 cells (SI = EC50 on HP-F cells/EC50 on solid cancer cells). […]

In series [2] the test system is HepG2 cells. Put plainly: Mitochondrial membrane potential (JC-1). It is filed as cell-based, human. The settings on record: HepG2, 100 µM, 24 h. The procedure:
HepG2 cells were seeded in a black walled clear bottom 96-well sterile flat bottom tissue culture plates (BD Biosciences, USA) at a density of 5×10^4 cells/well (100 µL) and incubated in a CO2 incubator for 24 h at 37°C. […] The staining solution JC-1 was prepared with PBS and 5 µM was added to each well. The cells were further incubated in a CO2 incubator at 37°C for 1 h. After washing the plate with PBS twice, the fluorescence was measured using a Fluostar Optima microplate reader (BMG Labtech) at 535 nm for JC-1 monomers and at 590 nm for JC-1 aggregates.

Series [3] deals with normal human hepatocytes (HP-F). Put plainly: MTS cell viability assay, normal human hepatocytes. It is filed as cell-based. To be noted: Hepatocyte, 24 h. As for the experimental part: (§1) Cell viability was determined by using the MTS assay. In brief, HepG2 cells (5×10^3 cells/100 µL/well), MDA-MB-231 (5×10^3 cells/100 µL/well), THP-1 (25×10^3/100 µL/well), normal human and rat hepatocytes (1×10^4 cells/100 µL/well) were plated in triplicate, in a 96 well sterile flat bottom tissue culture plates. […] Thereby, cells were exposed to various concentrations (0.1, 1, 10, 25, 50, 75, 100 µM) of each treatment. Controls consist of cells with media containing DMSO (<0.5%), test blank wells contained the test compound in media with no cells and blank wells contained media with no cells. After additional 3, 6, 12, 18 or 24 h, 20 µL of the MTS reagent in combination with the electron coupling agent, phenazine methosulfate were added to the wells and cells were incubated in a humidified incubator for 3 h. Absorbance at 490 nm (OD490) was measured by using a Flurostar Optima microplate reader (BMG Labtech, Cary, NC, USA) to obtain the number of viable cells relative to the control population. Percentage of viability of the test compound treated cells are expressed as percentage compared to control (<0.5% DMSO). […] The selective index (SI) of the fatty acid esters of phloridzin is defined as the ratio of cytotoxicity (EC50 values) on normal HP-F cells to solid cancer HepG2, MDA-MB-231 cells (SI = EC50 on HP-F cells/EC50 on solid cancer cells). Samples with SI values greater than three were considered to have high selectivity towards cancer cells.

The subject of series [4] is HepG2 cells. Put plainly: Morphologic observation under inverted phase contrast microscope. In kind it is cell-based, human. The settings on record: HepG2, 100 µM, 24 h. As for the experimental part: After 24 h of treatment, the morphology of HepG2 cells was observed under an inverted phase contrast microscope (Nikon Eclipse E 100, Nikon, Mississauga, ON, Canada) and were captured at 400X magnification using Infinity digital microscopy camera (Lumenera corporation, Ottawa, ON, Canada).

The target of series [5] is T1, human DNA topo IIα (Homo sapiens, UniProt P11388).
T1 construct: purchased TopoGEN, Inc., Columbus, OH, USA
Put plainly: Topoisomerase IIα catalytic activity (pHOT1 DNA relaxation). In kind it is biochemical. To be noted: 100 µM, 4 units enzyme, 37°C 30 min. The procedure:
The topo IIα catalytic activity was monitored via electrophoresis using topoisomerase II drug screening kit (TopoGEN, Inc., Columbus, OH, USA). Briefly, 20 µL of reaction mixtures contained 0.5 M Tris-HCl, pH 8.0, 1.5 M NaCl, 100 mM MgCl2, 20 mM ATP, 300 µg BSA/mL and 5 mM dithiothreitol. Supercoiled DNA (pHOT1 DNA), supercoiled provided in the kit was determined to be ideal for this assay because it is small and easy to handle and has a large number of topo IIα recognition elements. […] The reaction was terminated by adding 2 µL of 10% sodium dodecyl sulfate (SDS) followed by digestion with 2 µL of proteinase K (50 µg/mL) at 37°C for 15 min to degrade enzyme. After adding 2 µL of loading buffer (0.25% bromophenol blue and 50% glycerol) was added to the mixture, samples were loaded onto 1% agarose gel. Electrophoresis was conducted at 66 V (2 V/cm) for 5 h in TBE buffer using Biorad Electrophoretic Gel System (Bio-Rad, Hercules, CA, USA). Supercoiled DNA (pHOT1 DNA) and relaxed DNA were included in the electrophoresis run as markers for DNA topology. Gels were then stained in 0.5 µg/mL gel red in TBE for 30 min and destained for 15 min in distilled water prior to digital image acquisition using Gel Doc 100 system (Bio-Rad, Hercules, CA, USA).
One unit of topoisomerase II activity was defined as the minimum amount of enzyme required to achieve complete relaxation of […] superhelical pHOT1 DNA in 30 min at 37°C. […] The percent of inhibition was calculated by the following formula: [drawing 1] Where Scontrol is the percent of supercoiled DNA in the control lane (without enzyme and test compounds), S0 is the percent of supercoiled DNA in the lane without test compounds and S is the percent of supercoiled DNA in the lane with test compounds and enzyme.

Series [6] deals with caspase 3 activity of HepG2 cells. Put plainly: Caspase-3 colorimetric activity assay. In kind it is cell-based, human. To be noted: HepG2, 100 µM, 24 h, compared to DMSO control. As for the experimental part: The activity of caspase 3 enzyme was measured using caspase 3 colorimetric assay kit purchased from Sigma-Aldrich. […] Cells were lysed and the protein content of cell lysate was quantified by the BCA protein assay (Thermo Fisher Scientific Inc., Ottawa, ON, Canada). Caspase-3 activity was measured in the 200 µg of cell lysate using the caspase-specific peptide substrate, DEVD (Asp-Glu-Val-Asp), conjugated to reporter p-nitroanaline (ρ-NA) molecules.

Series [7] deals with HepG2 cells. Put plainly: MTS cell proliferation assay, HepG2. In kind it is cell-based, human. To be noted: Homo sapiens, MTS. The procedure:
as §1

Series [8] deals with HepG2 cells. Put plainly: DNA fragmentation (apoptotic DNA ladder). In kind it is cell-based, human. The settings on record: HepG2, 100 µM, 24 h, agarose gel. The procedure:
HepG2 (1×10^5) cells were seeded in 24-well culture plates and were allowed to adhere overnight. […] The plates were re-incubated for another 24 h. DNA fragmentation was detected using ApoTarget Quick Apoptotic DNA Ladder Detection Kit (Invitrogen, Burlington, ON, Canada) according to the manufacturer’s protocol. The principle involves detecting the internucleosomal DNA fragments formed during apoptosis. Briefly, floating dead cells and trypsinized adherent cells were collected and centrifuged at 1,000 rpm for 10 min. After washing with diluted phosphate buffered saline, the cells were lysed with 35 µL TE lysis buffer (a kit component). To the lysate, 5 µL of Enzyme A (a kit component) was added and incubated at 37°C for 10 min. Afterwards, 5 µL of Enzyme B (a kit component) was added, gently mixed and incubated at 50°C for 30 min. The DNA was precipitated with the ammonium acetate and absolute ethanol at −20°C. After centrifugation (10 min at 12,000 rpm) and air drying, the DNA pellet was dissolved in 30 µL of DNA suspension buffer. For detecting the DNA ladder, the extracted DNA samples were run on a 1.2% agarose gel containing 0.5 µg/mL gel red in Tris-Borate-EDTA (TBE) buffer. After electrophoresis, the gel image was captured using Gel Doc 100 system (Bio-Rad, Mississauga, ON, Canada).

Each structure is given as a SMILES string.

T1 sequence (P11388 whole entry): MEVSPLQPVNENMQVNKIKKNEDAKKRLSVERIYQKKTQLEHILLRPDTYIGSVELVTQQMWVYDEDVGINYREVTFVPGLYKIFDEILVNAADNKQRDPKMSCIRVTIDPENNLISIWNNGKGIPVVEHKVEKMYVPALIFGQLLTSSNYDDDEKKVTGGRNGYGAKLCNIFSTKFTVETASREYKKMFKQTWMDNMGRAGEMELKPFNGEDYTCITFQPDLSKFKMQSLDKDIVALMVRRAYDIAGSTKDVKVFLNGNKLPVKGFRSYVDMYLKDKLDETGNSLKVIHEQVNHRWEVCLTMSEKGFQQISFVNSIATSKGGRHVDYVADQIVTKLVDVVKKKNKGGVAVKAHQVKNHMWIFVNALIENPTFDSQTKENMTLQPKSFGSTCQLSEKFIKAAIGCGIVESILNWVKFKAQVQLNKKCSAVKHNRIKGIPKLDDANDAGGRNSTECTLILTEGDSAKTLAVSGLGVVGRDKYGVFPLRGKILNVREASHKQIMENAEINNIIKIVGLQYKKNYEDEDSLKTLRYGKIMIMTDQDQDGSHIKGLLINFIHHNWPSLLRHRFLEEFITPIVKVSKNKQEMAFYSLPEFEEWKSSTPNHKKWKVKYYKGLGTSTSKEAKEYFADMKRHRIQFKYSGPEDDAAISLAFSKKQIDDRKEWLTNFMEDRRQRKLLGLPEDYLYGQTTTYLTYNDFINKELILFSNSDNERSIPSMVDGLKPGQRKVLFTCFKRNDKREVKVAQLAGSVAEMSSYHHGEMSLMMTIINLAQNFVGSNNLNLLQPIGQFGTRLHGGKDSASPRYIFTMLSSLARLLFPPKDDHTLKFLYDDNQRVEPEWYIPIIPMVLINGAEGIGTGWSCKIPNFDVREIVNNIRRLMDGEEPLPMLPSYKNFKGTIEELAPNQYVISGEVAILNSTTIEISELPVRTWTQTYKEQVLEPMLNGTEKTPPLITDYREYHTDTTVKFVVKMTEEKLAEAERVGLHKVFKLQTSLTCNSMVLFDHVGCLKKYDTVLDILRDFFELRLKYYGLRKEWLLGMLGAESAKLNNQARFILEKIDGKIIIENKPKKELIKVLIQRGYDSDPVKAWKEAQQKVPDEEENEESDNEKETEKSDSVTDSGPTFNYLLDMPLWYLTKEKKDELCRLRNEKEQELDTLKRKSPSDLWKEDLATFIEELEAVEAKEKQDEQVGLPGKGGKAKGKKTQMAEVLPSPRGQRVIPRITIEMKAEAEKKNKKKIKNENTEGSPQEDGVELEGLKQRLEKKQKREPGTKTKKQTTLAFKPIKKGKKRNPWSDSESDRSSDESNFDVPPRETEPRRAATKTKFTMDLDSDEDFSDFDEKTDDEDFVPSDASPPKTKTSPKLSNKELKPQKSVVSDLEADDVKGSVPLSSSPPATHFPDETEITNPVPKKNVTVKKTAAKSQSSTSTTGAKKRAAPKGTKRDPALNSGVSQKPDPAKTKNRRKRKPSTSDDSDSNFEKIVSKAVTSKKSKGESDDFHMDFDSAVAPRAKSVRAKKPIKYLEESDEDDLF

As to `CCCCCCCCCCCCCCCCCC(=O)OC[C@H]1O[C@@H](Oc2cc(O)cc(O)c2C(=O)CCc2ccc(O)cc2)[C@H](O)[C@@H](O)[C@@H]1O` [Pz-Stearic acid ester, stearic acid ester of Pz], in series [1], the “viability of rat hepatocytes” value is given as “about 50%”.

Take `CNC(=O)c1cc(Oc2ccc(NC(=O)Nc3ccc(Cl)c(C(F)(F)F)c3)cc2)ccn1` [Sorafenib, sorafenib]: the mitochondrial membrane potential entry in series [2] is recorded as “significant (P<0.05) reduction”. In addition, the EC50 in series [3] is over 100 µM; in series [7] (HepG2, 3 h) it was 67.5 ± 5.2 µM; in series [7] (HepG2, 6 h), 46.7 ± 3.5 µM; in series [7] (HepG2, 12 h), 17.3 ± 0.8 µM; in series [7] (HepG2, 18 h) it was 13.4 ± 0.9 µM; in series [7] (HepG2, 24 h), 10.7 ± 0.5 µM. In addition, the apoptotic morphological changes entry in series [4] was “morphological changes which are characteristic to apoptosis”. Further, the “catalytic activity of human DNA topo IIα (pHOT DNA relaxation)” value in series [5] was “inhibited catalytic activity”. Besides, the “caspase 3 activity” value in series [6] is on record as “significant (P<0.001) increase”. The “internucleosomal DNA fragmentation” value in series [8] is reported as “clear DNA ladders”.

(Values after paper PMC4167698, “Fatty Acid Esters of Phloridzin Induce Apoptosis of Human Liver Cancer Cells through Altered Gene Expression” (PLoS ONE, 2014).)
